Experimental data taken from ChEMBL document CHEMBL1201862, “PubChem BioAssay data set” (2004).
Active and inactive are the calls of the source.

Experiments:
[1] = tested on: HeLa; experiment: Cytotoxicity counterscreen assay for transcriptional activators of heat shock protein 70 (Hsp70). [Related pubchem assays: 1203, 1252 ]; type: functional; settings: Homo sapiens;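 further: cells exposed to compound for 16 hours before readout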
[2] = molecular target: Inward rectifier potassium channel 2 (Mus musculus, UniProt P35561); experiment: Manual electrophysiological patch clamp assay for SAR compounds that inhibit/block inward-rectifying potassium ion channel Kir2.1. [Related pubchem assays: 1843 (Summary assay for Kir2.1 inhibitor assays.), 1672 (Primary HTS of 305616 compounds where 2592 were identified as active.)]; type: functional
[3] = molecular target: Induced myeloid leukemia cell differentiation protein Mcl-1 (Homo sapiens, UniProt Q07820); type: functional
[4] = CCR5-tropic HIV-1 fusion blockers – cell-based, CCR5-tropic Env, dose response (AID 2279); type: functional
[5] = molecular target: T1, Aminopeptidase N (Plasmodium falciparum FcB1/Columbia, UniProt O96935); experiment: malaria alanyl aminopeptidase activity blockers – biochemical, fluorogenic H-Leu-NHMec substrate, 1536-well (AID 1445); set-up: species or system Plasmodium falciparum 3D7, 3D7
T1 sequence (O96935 whole entry): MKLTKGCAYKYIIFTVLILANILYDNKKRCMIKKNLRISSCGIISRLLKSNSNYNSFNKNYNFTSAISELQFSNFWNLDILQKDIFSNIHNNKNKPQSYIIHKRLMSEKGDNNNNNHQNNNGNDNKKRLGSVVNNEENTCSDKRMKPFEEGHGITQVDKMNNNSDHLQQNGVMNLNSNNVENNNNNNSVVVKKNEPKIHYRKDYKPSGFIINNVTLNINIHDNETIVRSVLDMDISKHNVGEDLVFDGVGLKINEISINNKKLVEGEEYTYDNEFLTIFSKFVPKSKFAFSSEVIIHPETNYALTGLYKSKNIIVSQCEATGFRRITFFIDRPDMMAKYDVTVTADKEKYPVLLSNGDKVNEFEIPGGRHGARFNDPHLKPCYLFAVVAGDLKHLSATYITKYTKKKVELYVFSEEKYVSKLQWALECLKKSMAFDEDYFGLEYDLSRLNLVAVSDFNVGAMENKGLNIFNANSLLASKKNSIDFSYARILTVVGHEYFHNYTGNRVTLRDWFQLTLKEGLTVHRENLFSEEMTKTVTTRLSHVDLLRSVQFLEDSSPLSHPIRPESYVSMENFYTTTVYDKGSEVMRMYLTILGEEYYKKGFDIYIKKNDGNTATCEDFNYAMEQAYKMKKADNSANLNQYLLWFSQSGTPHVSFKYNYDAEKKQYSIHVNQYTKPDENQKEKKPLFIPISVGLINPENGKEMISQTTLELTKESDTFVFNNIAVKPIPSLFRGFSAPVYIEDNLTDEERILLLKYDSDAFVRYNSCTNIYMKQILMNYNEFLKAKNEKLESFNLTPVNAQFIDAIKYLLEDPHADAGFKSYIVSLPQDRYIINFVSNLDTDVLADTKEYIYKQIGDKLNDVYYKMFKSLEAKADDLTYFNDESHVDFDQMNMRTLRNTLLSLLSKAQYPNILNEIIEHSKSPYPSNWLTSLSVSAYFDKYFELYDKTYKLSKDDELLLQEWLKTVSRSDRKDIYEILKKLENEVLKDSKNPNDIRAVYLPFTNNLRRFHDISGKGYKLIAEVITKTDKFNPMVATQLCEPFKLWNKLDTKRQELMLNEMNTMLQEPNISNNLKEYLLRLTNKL

[6] = molecular target: T2, Calpain-2 catalytic subunit (Sus scrofa, UniProt P43367); experiment: m-calpain protease blockers, concentration series – biochemical, fluorogenic peptide substrate, dose response (AID 1420); type: functional
T2 sequence (P43367 whole entry): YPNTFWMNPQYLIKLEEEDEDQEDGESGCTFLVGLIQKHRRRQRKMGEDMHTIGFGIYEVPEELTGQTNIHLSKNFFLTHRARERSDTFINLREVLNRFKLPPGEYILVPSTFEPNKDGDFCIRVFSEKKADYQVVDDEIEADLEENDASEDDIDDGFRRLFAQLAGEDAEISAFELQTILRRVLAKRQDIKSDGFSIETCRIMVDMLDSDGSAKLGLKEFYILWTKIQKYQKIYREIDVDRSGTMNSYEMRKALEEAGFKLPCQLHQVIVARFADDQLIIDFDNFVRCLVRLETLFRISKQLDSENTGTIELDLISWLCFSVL

[7] = molecular target: Large T antigen (Simian virus 40, UniProt P03070); type: functional, Betapolyomavirus macacae;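 further: Confirmatory-stage PubChem screen for compounds that inhibit SV40 T antigen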
[8] = molecular target: Estrogen receptor beta (Homo sapiens, UniProt Q92731); experiment: blockers of SRC-3 recruitment to ERβ – biochemical, ELISA, streptavidin-HRP readout, orthogonal assay, confirmation (AID 1060)
[9] = Counterscreen for IDE inhibitors: Luminescence-based cell-based high throughput dose response assay to identify compounds that are cytotoxic to HEK cells. [Related pubchem assays: 434962 (Primary screen (IDE inhibitors in singlicate)), 449730 (Counterscreen (Cytotoxicity in triplicate)), 435028 (Confirmation (IDE inhibitors in triplicate)) …; type: functional; settings: HEK293
[10] = molecular target: T3, Insulin-degrading enzyme (Homo sapiens, UniProt P14735); experiment: Dose Response: Fluorescence polarization-based cell-based high throughput dose response assay for inhibitors of insulin-degrading enzyme (IDE). [Related pubchem assays: 434962 (Primary screen (IDE inhibitors in singlicate)), 449730 (Counterscreen (Cytotoxicity in triplicate)), 435028 (Confirmation (IDE inhibitors in triplicate)), 434984 (Summary …; type: functional
T3 sequence (P14735 whole entry): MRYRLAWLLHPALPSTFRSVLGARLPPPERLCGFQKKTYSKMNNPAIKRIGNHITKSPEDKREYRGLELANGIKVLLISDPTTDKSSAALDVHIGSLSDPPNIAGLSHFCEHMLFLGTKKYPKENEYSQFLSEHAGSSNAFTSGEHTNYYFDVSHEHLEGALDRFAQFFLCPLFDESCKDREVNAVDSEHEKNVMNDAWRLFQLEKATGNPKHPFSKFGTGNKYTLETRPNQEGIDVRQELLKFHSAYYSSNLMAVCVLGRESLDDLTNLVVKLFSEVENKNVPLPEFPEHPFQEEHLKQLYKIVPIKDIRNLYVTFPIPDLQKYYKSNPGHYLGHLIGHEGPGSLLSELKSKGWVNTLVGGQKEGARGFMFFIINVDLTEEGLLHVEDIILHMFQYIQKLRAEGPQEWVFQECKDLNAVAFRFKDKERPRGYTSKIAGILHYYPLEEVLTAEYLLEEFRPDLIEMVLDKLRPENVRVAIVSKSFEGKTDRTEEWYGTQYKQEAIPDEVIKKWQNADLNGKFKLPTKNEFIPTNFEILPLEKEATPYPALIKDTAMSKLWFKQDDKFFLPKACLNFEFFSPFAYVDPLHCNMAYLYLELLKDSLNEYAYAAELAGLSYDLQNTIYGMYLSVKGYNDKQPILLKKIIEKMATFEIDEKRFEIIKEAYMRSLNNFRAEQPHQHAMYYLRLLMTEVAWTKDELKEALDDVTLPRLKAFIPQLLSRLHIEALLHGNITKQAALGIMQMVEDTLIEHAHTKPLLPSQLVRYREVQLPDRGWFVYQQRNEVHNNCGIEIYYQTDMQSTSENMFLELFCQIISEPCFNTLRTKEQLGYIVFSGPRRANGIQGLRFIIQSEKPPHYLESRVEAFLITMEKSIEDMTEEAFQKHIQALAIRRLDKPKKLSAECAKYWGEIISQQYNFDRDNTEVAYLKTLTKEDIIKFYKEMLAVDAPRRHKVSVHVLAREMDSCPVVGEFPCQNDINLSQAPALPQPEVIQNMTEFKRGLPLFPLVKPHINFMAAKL

[11] = molecular target: Photoreceptor-specific nuclear receptor (Homo sapiens, UniProt Q9Y5X4); type: functional;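 further: potency for compounds that break the NR2E3 corepressor complex and count as activators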
[12] = molecular target: NS3 (Hepatitis C virus, UniProt A3EZJ3); experiment: PubChem AID 2173; set-up: species or system Hepacivirus hominis
[13] = molecular target: Peroxisome proliferator-activated receptor gamma/Nuclear receptor corepressor 2 (Homo sapiens, UniProt P37231+Q9Y618); type: functional
[14] = molecular target: Peroxisome proliferator-activated receptor gamma/Nuclear receptor coactivator 2 (Homo sapiens, UniProt P37231); type: functional;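 further: agonist potency for raising coactivator recruitment to the receptor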
[15] = molecular target: Peroxisome proliferator-activated receptor gamma/Nuclear receptor coactivator 3 (Homo sapiens, UniProt P37231); type: functional;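 further: agonist potency for raising coactivator recruitment to the receptor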
[16] = molecular target: Peroxisome proliferator-activated receptor gamma/Nuclear receptor coactivator 1 (Homo sapiens, UniProt P37231); type: functional;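 further: agonist potency as compounds enhance coactivator SRC-1 recruitment to PPARgamma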
[17] = Luminescence Cell-Based Dose Confirmation HTS to Identify Activators of 5'UTR Stem-Loop Driven Alpha-Synuclein mRNA Translation in H4 Neuroglioblastoma Cells. [Related pubchem assays: 1829 (Project Summary), 1814 (Primary HTS)]; type: functional
[18] = molecular target: T4, Heat shock factor protein 1 (Mus musculus, UniProt P38532); experiment: decrease of HSF1-responsive luciferase luminescence – cell-based, NIH3T3, dose retest, confirmation (AID 2382); type: functional;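 further: NIH3T3 fibroblasts with HSF1-driven luciferase reporter stressed by proteasome inhibitor MG132; luminescence from HSF1-driven luciferase expression after 8 hours of MG132 stress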
T4 sequence (P38532 whole entry): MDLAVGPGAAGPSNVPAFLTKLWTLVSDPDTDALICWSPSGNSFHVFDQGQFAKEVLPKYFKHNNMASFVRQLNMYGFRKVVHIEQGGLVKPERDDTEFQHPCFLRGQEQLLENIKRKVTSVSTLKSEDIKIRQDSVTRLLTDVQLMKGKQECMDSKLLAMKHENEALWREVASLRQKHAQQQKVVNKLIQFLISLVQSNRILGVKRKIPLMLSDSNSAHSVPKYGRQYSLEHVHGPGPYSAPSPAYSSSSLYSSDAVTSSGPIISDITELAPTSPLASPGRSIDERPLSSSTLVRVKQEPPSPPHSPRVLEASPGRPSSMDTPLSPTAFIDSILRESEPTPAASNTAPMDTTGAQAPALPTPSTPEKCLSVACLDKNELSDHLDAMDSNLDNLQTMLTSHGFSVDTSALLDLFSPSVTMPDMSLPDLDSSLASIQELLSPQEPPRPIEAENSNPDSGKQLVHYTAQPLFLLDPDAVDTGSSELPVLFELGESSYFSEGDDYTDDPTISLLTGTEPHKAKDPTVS

[19] = fluconazole-exposed Candida albicans growth modulators – fluorescence, retest, confirmation (AID 2467); type: functional, cell-based
[20] = M. tuberculosis H37Rv growth inhibitors, H37Rv strain (AID 1626); type: functional
[21] = Luminescence Cell-Based Dose Response HTS to Identify Activators of Luciferase Translation or Activity in H4 […] Cells. [Related pubchem assays: 1829 (Project Summary), 1814 (Primary HTS)]; type: functional
[22] = NIH-3T3 fibroblast cytotoxicity, dose response, cytotoxicity control, cell-based, fluorescence, Alamar Blue, secondary assay (AID 2327); type: functional;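 further: NIH-3T3 mouse fibroblasts cultured with fluconazole at 8 µg/mL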
[23] = molecular target: Paired box protein Pax-8 (Homo sapiens, UniProt Q06710); experiment: PAX8 transcriptional activity inhibition in RMG-I – RMG-I cells, luciferase, cherry-pick, dose response (AID 687027); type: functional, cell-based;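 further: luciferase reporter driven by Pax8 target thyroperoxidase promoter measured by SteadyGlo luminescence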
[24] = general cell-killing toxicity readout – plate reader, dry powder samples, cytotoxicity control for PAX8 inhibitor project, dose response (AID 743021); type: functional, cell-based
[25] = Luminescence Cell-Based Dose Response HTS to Identify Inhibitors of 5'UTR Stem-Loop Driven Prion Protein mRNA Translation in H4 Neuroglioblastoma Cells. [Related pubchem assays: 1827 (Project Summary), 1813 (Primary HTS)]; type: functional
[26] = Luminescence-based counterscreen assay for KLF5 inhibitors: dose response cell-based high throughput screening assay to identify cytotoxic compounds using the IEC-6 intestinal epithelial cell line. [Related pubchem assays: 1700 (Primary screen.), 1834 (Confirmation screen.), 1858 (Summary AID.), 1905 (Counterscreen.)]; type: functional
[27] = luciferase reporter signal suppression in cells – H4 neuroglioma cells, luminescence, dose response (AID 1990); type: functional, cell-based
[28] = alpha-synuclein stem-loop luciferase translation blockers – H4 neuroglioma cells, luminescence, confirmation (AID 1988); type: functional, cell-based

Induced myeloid leukemia cell differentiation protein Mcl-1, sequence (Q07820 whole entry, the tested form may be a part): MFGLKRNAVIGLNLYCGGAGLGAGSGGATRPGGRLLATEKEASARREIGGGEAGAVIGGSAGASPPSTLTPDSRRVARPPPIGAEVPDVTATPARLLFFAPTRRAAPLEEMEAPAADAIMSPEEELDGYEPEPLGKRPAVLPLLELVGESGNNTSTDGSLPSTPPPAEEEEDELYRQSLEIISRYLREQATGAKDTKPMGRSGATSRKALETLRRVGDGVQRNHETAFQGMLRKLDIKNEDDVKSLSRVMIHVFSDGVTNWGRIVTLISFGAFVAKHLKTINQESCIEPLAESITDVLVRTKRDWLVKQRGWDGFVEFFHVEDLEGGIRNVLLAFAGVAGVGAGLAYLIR
Inward rectifier potassium channel 2, sequence (P35561 whole entry): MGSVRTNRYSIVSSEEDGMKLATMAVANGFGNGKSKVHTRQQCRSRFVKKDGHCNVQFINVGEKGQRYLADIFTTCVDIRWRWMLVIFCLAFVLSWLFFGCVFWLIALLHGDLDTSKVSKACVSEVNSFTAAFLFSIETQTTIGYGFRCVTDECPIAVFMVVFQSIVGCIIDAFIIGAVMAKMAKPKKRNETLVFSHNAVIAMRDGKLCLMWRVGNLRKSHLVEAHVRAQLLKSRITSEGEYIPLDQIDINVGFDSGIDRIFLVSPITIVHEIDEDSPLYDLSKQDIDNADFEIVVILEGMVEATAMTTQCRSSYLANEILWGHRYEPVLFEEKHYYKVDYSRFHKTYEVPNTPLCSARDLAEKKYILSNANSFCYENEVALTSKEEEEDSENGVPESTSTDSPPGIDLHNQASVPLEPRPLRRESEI
Estrogen receptor beta, sequence (Q92731 whole entry): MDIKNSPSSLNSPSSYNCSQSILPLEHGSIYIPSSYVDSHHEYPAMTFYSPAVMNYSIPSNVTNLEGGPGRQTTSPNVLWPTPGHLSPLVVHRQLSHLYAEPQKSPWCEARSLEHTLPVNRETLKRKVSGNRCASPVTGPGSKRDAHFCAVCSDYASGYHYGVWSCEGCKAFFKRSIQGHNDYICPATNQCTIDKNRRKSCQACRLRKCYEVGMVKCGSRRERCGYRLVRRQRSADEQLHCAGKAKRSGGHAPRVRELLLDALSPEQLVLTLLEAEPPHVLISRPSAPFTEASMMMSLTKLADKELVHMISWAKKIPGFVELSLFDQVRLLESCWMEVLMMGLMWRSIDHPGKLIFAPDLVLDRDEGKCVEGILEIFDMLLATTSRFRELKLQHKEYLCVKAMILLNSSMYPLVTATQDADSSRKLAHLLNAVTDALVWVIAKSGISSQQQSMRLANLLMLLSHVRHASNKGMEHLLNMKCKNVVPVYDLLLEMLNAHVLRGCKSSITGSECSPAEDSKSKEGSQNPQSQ
Peroxisome proliferator-activated receptor gamma/Nuclear receptor coactivator 2, sequence (P37231 whole entry): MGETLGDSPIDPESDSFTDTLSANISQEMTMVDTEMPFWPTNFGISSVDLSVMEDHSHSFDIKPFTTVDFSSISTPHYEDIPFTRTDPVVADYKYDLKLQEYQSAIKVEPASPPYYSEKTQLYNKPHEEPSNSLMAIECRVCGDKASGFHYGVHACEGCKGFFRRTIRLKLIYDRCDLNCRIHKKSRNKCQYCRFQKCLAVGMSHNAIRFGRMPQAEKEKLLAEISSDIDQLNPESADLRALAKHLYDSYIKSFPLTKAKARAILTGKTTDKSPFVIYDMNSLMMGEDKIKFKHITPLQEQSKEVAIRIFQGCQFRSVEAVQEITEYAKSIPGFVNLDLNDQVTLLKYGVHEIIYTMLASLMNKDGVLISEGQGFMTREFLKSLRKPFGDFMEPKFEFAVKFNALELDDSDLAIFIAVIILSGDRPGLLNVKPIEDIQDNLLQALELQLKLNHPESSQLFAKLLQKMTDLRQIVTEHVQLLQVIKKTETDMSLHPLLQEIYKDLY
Peroxisome proliferator-activated receptor gamma/Nuclear receptor coactivator 2, sequence (Q15596 whole entry, further chain): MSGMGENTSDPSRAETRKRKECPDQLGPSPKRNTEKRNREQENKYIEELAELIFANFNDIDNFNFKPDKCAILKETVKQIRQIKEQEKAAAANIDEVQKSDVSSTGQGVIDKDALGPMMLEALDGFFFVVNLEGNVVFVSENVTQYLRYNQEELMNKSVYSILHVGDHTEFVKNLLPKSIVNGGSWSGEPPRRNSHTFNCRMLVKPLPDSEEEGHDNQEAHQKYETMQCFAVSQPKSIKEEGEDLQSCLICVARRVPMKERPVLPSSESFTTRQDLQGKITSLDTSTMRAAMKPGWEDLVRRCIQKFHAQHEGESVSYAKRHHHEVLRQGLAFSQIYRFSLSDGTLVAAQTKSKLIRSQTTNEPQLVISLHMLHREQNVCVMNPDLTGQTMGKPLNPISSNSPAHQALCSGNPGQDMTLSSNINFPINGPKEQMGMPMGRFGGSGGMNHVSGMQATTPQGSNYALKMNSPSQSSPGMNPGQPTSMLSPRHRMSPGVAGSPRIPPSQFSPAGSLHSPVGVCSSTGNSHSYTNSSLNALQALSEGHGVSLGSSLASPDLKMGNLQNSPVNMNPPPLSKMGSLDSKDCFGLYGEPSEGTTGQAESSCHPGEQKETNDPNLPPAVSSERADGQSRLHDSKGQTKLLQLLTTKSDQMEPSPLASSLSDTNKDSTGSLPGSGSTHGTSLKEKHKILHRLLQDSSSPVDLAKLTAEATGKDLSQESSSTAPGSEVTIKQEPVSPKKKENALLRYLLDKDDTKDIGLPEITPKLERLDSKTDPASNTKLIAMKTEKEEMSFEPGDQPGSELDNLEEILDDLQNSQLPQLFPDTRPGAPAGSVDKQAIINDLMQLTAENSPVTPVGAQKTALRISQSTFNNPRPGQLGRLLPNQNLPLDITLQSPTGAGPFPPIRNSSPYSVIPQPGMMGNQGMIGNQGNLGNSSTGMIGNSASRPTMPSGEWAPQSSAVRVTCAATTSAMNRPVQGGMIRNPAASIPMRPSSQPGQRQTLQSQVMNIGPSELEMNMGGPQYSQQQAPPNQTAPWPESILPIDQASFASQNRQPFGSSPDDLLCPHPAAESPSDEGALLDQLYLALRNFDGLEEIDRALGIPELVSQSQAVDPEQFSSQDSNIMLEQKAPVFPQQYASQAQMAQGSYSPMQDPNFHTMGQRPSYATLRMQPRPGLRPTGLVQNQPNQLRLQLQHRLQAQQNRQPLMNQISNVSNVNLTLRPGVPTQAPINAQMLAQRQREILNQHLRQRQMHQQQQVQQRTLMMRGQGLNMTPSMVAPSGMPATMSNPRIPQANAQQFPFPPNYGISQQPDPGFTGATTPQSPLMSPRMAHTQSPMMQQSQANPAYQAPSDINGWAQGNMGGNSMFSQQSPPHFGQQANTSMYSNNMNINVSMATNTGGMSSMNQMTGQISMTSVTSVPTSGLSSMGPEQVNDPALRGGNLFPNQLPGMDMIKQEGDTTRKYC
Paired box protein Pax-8, sequence (Q06710 whole entry): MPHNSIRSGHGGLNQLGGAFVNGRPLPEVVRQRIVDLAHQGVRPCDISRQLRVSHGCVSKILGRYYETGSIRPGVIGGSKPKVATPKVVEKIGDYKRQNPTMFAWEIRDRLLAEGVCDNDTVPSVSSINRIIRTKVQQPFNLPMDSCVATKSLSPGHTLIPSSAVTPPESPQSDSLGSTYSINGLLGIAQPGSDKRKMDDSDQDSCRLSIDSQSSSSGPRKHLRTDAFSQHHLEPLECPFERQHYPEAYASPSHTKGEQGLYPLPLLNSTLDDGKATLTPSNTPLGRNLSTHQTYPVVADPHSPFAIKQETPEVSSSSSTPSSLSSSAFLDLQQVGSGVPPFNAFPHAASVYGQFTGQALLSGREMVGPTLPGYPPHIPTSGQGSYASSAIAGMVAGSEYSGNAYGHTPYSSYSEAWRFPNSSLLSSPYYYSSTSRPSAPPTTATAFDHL
Photoreceptor-specific nuclear receptor, sequence (Q9Y5X4 whole entry): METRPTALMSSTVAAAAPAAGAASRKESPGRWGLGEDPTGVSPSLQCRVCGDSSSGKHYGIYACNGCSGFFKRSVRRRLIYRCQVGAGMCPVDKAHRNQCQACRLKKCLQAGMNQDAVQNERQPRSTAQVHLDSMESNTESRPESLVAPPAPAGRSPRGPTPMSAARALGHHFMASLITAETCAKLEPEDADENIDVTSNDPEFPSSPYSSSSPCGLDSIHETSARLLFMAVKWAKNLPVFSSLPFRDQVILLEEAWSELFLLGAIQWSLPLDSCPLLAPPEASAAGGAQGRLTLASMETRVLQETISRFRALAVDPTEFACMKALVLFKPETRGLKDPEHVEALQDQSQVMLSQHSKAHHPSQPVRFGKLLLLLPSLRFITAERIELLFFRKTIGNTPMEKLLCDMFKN
NS3, sequence (A3EZJ3 whole entry): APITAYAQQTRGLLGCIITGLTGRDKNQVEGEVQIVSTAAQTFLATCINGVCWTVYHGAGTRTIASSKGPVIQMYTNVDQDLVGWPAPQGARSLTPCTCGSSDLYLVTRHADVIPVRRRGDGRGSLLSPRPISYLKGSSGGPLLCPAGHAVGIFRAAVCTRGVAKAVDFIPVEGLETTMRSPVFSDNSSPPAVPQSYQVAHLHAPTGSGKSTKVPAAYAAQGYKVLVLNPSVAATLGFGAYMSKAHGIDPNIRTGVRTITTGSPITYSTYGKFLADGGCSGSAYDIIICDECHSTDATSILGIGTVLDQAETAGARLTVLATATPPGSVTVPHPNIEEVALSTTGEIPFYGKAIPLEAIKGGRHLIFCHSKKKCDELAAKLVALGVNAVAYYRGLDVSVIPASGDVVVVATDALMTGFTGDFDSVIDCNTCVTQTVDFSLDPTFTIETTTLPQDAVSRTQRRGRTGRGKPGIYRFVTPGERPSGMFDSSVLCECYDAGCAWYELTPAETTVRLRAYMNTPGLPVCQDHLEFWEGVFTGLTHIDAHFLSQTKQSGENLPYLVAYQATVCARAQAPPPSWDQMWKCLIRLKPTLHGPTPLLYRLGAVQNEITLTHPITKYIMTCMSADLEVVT

With `CN(C)/C=C1/NC(=S)NC1=O` the CC50 [1] was > 99 µM (not active).
With `COc1ccc(CNCc2ccccc2C)cc1` the IC50 [2] was 9.08 µM (active).
In the case of `COc1cc(/C=C2\SC(=S)NC2=O)ccc1OS(=O)(=O)c1ccccc1`, the IC50 [3] was 2.79 µM (active), the IC50 [4] was 16.5 µM (active) and the IC50 [5] was 38.6 µM (active). The IC50 [6] was 11.1 µM (not active).
With `Cc1cc(-c2nc3c4c5c(sc4nc(O)n3n2)CCC5)c(C)o1` the IC50 [3] was 3.05 µM (active), the IC50 [7] was 24.8 µM (active) and the IC50 [8] was 18.6 µM (not active).
In the case of `CC(Oc1ccc2c3c(c(=O)oc2c1)CCCC3)C(=O)NCc1ccncc1` (centres undefined), the IC50 [9] was 36.4 µM (not active) and the IC50 [10] was > 55.9 µM (not active).
For `Cc1ccc(C(=O)C2=C(O)C(=O)N(Cc3cccnc3)C2c2cccc(Oc3ccccc3)c2)o1` (centres undefined), the IC50 [11] was 5.73 µM (active), the IC50 [12] was 6.11 µM (active) and the IC50 [13] was 2.46 µM (active).
With `O=C(Nc1nc(-c2ccccc2)nc2ccccc12)c1ccc(F)cc1` the EC50 [14] was 13.5 µM (not active), the EC50 [15] was 23 µM (not active) and the EC50 [16] was 17.2 µM (not active).
For `COc1cc(/C=N/N=C(/Nc2ccc(C)cc2)c2nc3ccccc3s2)ccc1O`, the EC50 [17] was 17.6 µM (active), the EC50 [18] was < 0.16 µM (active) and the EC50 [19] was > 38 µM (not active). For the same compound, the IC50 [20] was > 100 µM (active), the EC50 [21] was 0.154 µM (active) and the EC50 [22] was > 150 µM (inactive).
For `C/C(=N\NC(=O)c1[nH]nc2c1CCC2)c1cccs1`, the AC50 [23] was 5.19 µM (active), the AC50 [24] was 8.65 µM (active) and the EC50 [25] was 4.49 µM (active). The IC50 [26] was 10.1 µM (not active), the EC50 [27] was 4.85 µM (active) and the EC50 [28] was 2.95 µM (active).
